pIC50: −log10 of the molar value.
System: 843782-103-R-J1-PDC complex spheroid viability
Assay: Anticancer human tumor 843782-103-R-J1-PDC patient-derived lung adenocarcinoma cell line growth inhibition [RAS]
Conditions: for pIC50: curve of first compound; for viability, T/C: stronger effect = lower value; active means viability on the fitted dose curve at most 10% of control; inactive means the rest
Summary of the method: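 Agents were tested in combination matrices in half-log decrements from a top concentration at or near clinical Cmax (10 microM if undetermined). Targets were multi-cell spheroids of tumour lines plus HUVEC and MSC stromal cells.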

[1] = second compound 0.000949 µM, first compound 0.0316 µM
[2] = second compound 0.000949 µM, first compound 0.1 µM
[3] = second compound 0.000949 µM, first compound 0.316 µM
[4] = second compound 0.000949 µM, first compound 1 µM
[5] = second compound 0.003 µM, first compound 0.0316 µM
[6] = second compound 0.003 µM, first compound 0.1 µM
[7] = second compound 0.003 µM, first compound 0.316 µM
[8] = second compound 0.003 µM, first compound 1 µM
[9] = second compound 0.00949 µM, first compound 0.0316 µM
[10] = second compound 0.00949 µM, first compound 0.1 µM
[11] = second compound 0.00949 µM, first compound 0.316 µM
[12] = second compound 0.00949 µM, first compound 1 µM
[13] = second compound 0.03 µM, first compound 0.0316 µM
[14] = second compound 0.03 µM, first compound 0.1 µM
[15] = second compound 0.03 µM, first compound 0.316 µM
[16] = second compound 0.03 µM, first compound 1 µM
[17] = second compound 0.0949 µM, first compound 0.0316 µM
[18] = second compound 0.0949 µM, first compound 0.1 µM
[19] = second compound 0.0949 µM, first compound 0.316 µM
[20] = second compound 0.0949 µM, first compound 1 µM
[21] = second compound 0.3 µM, first compound 0.0316 µM
[22] = second compound 0.3 µM, first compound 0.1 µM
[23] = second compound 0.3 µM, first compound 0.316 µM
[24] = second compound 0.3 µM, first compound 1 µM
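Further: viability read after seven days of compound exposure.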

CC(=O)OC12COC1CC(O)C1(C)C(=O)C(O)C3=C(C)C(OC(=O)C(O)C(NC(=O)OC(C)(C)C)c4ccccc4)CC(O)(C(OC(=O)c4ccccc4)C21)C3(C)C (stereo unspecified) + CCn1c(-c2cccnc2C(C)OC)c2c3cc(ccc31)N1CCOC(CC(NC(=O)C(C(C)C)N(C)C(=O)C3(F)CCN(C(=O)C#CC(C)(C)N(C)C)CC3)C(=O)N3CCCC(N3)C(=O)OCC(C)(C)C2)C1
> 7.50: pIC50 (second compound 0.000949 µM) | pIC50 (second compound 0.003 µM) | pIC50 (second compound 0.00949 µM) | pIC50 (second compound 0.03 µM) | pIC50 (second compound 0.0949 µM) | pIC50 (second compound 0.3 µM)
active: viability, T/C [1] 4.08% | viability, T/C [2] 5.48% | viability, T/C [3] 6.81% | viability, T/C [4] 5.51% | viability, T/C (second compound 0.000949 µM, first compound 3.16 µM) 7.48% | viability, T/C (second compound 0.000949 µM, first compound 10 µM) 11.2% | viability, T/C [5] 5.53% | viability, T/C [6] 7.6% | viability, T/C [7] 7.77% | viability, T/C [8] 6.28% | viability, T/C (second compound 0.003 µM, first compound 3.16 µM) 6.75% | viability, T/C (second compound 0.003 µM, first compound 10 µM) 9.92% | viability, T/C [9] 5.3% | viability, T/C [10] 8.65% | viability, T/C [11] 9.68% | viability, T/C [12] 7.03% | viability, T/C (second compound 0.00949 µM, first compound 3.16 µM) 10% | viability, T/C (second compound 0.00949 µM, first compound 10 µM) 9.14% | viability, T/C [13] 5.25% | viability, T/C [14] 7.67% | viability, T/C [15] 6.65% | viability, T/C [16] 8.38% | viability, T/C (second compound 0.03 µM, first compound 3.16 µM) 9.51% | viability, T/C (second compound 0.03 µM, first compound 10 µM) 12.3% | viability, T/C [17] 8.61% | viability, T/C [18] 7.03% | viability, T/C [19] 8.34% | viability, T/C [20] 7.78% | viability, T/C (second compound 0.0949 µM, first compound 3.16 µM) 10.6% | viability, T/C (second compound 0.0949 µM, first compound 10 µM) 9.37% | viability, T/C [21] 3.84% | viability, T/C [22] 5.17% | viability, T/C [23] 6.69% | viability, T/C [24] 9.62% | viability, T/C (second compound 0.3 µM, first compound 3.16 µM) 8.58% | viability, T/C (second compound 0.3 µM, first compound 10 µM) 9.58%

CCc1c2c(nc3ccc(O)cc13)-c1cc3c(c(=O)n1C2)COC(=O)[C@]3(O)CC + CCn1c(-c2cccnc2C(C)OC)c2c3cc(ccc31)N1CCOC(CC(NC(=O)C(C(C)C)N(C)C(=O)C3(F)CCN(C(=O)C#CC(C)(C)N(C)C)CC3)C(=O)N3CCCC(N3)C(=O)OCC(C)(C)C2)C1
inactive: viability, T/C (second compound 0.000949 µM, first compound 0.000949 µM) 67.3% | viability, T/C (second compound 0.000949 µM, first compound 0.003 µM) 23.5% | viability, T/C (second compound 0.003 µM, first compound 0.000949 µM) 63.3% | viability, T/C (second compound 0.003 µM, first compound 0.003 µM) 27% | viability, T/C (second compound 0.00949 µM, first compound 0.000949 µM) 59.1% | viability, T/C (second compound 0.00949 µM, first compound 0.003 µM) 22.9% | viability, T/C (second compound 0.03 µM, first compound 0.000949 µM) 59.7% | viability, T/C (second compound 0.03 µM, first compound 0.003 µM) 21.9% | viability, T/C (second compound 0.0949 µM, first compound 0.000949 µM) 68.9% | viability, T/C (second compound 0.0949 µM, first compound 0.003 µM) 18.6% | viability, T/C (second compound 0.3 µM, first compound 0.000949 µM) 59.3% | viability, T/C (second compound 0.3 µM, first compound 0.003 µM) 17.8%
8.91: pIC50 (second compound 0.3 µM)
8.90: pIC50 (second compound 0.00949 µM) | pIC50 (second compound 0.03 µM)
active: viability, T/C (second compound 0.000949 µM, first compound 0.00949 µM) 6.26% | viability, T/C (second compound 0.000949 µM, first compound 0.03 µM) 2.82% | viability, T/C (second compound 0.000949 µM, first compound 0.0949 µM) 1.64% | viability, T/C (second compound 0.000949 µM, first compound 0.3 µM) 1.49% | viability, T/C (second compound 0.003 µM, first compound 0.00949 µM) 5.6% | viability, T/C (second compound 0.003 µM, first compound 0.03 µM) 2.52% | viability, T/C (second compound 0.003 µM, first compound 0.0949 µM) 1.9% | viability, T/C (second compound 0.003 µM, first compound 0.3 µM) 1.58% | viability, T/C (second compound 0.00949 µM, first compound 0.00949 µM) 6.03% | viability, T/C (second compound 0.00949 µM, first compound 0.03 µM) 2.26% | viability, T/C (second compound 0.00949 µM, first compound 0.0949 µM) 1.84% | viability, T/C (second compound 0.00949 µM, first compound 0.3 µM) 2.05% | viability, T/C (second compound 0.03 µM, first compound 0.00949 µM) 3.99% | viability, T/C (second compound 0.03 µM, first compound 0.03 µM) 2.11% | viability, T/C (second compound 0.03 µM, first compound 0.0949 µM) 1.92% | viability, T/C (second compound 0.03 µM, first compound 0.3 µM) 1.55% | viability, T/C (second compound 0.0949 µM, first compound 0.00949 µM) 3.32% | viability, T/C (second compound 0.0949 µM, first compound 0.03 µM) 1.45% | viability, T/C (second compound 0.0949 µM, first compound 0.0949 µM) 1.1% | viability, T/C (second compound 0.0949 µM, first compound 0.3 µM) 1.93% | viability, T/C (second compound 0.3 µM, first compound 0.00949 µM) 3.68% | viability, T/C (second compound 0.3 µM, first compound 0.03 µM) 2.01% | viability, T/C (second compound 0.3 µM, first compound 0.0949 µM) 1.36% | viability, T/C (second compound 0.3 µM, first compound 0.3 µM) 1.25%
8.83: pIC50 (second compound 0.000949 µM)
8.84: pIC50 (second compound 0.003 µM) | pIC50 (second compound 0.0949 µM)

Nc1ccn(C2OC(CO)C(O)C2(F)F)c(=O)n1 (stereo unspecified) + CCn1c(-c2cccnc2C(C)OC)c2c3cc(ccc31)N1CCOC(CC(NC(=O)C(C(C)C)N(C)C(=O)C3(F)CCN(C(=O)C#CC(C)(C)N(C)C)CC3)C(=O)N3CCCC(N3)C(=O)OCC(C)(C)C2)C1
7.88: pIC50 (second compound 0.00949 µM)
inactive: viability, T/C (second compound 0.000949 µM, first compound 0.00316 µM) 70.1% | viability, T/C (second compound 0.000949 µM, first compound 0.01 µM) 52% | viability, T/C [1] 22.1% | viability, T/C (second compound 0.003 µM, first compound 0.00316 µM) 77.5% | viability, T/C (second compound 0.003 µM, first compound 0.01 µM) 72% | viability, T/C [5] 21.7% | viability, T/C (second compound 0.00949 µM, first compound 0.00316 µM) 73.3% | viability, T/C (second compound 0.00949 µM, first compound 0.01 µM) 59.4% | viability, T/C [9] 18.9% | viability, T/C (second compound 0.03 µM, first compound 0.00316 µM) 72.4% | viability, T/C (second compound 0.03 µM, first compound 0.01 µM) 74.5% | viability, T/C [13] 21.1% | viability, T/C (second compound 0.0949 µM, first compound 0.00316 µM) 85.6% | viability, T/C (second compound 0.0949 µM, first compound 0.01 µM) 69.9% | viability, T/C [17] 26.4% | viability, T/C (second compound 0.3 µM, first compound 0.00316 µM) 70.4% | viability, T/C (second compound 0.3 µM, first compound 0.01 µM) 62.7% | viability, T/C [21] 21.8%
7.84: pIC50 (second compound 0.3 µM)
7.77: pIC50 (second compound 0.0949 µM)
7.78: pIC50 (second compound 0.003 µM) | pIC50 (second compound 0.03 µM)
7.96: pIC50 (second compound 0.000949 µM)
active: viability, T/C [2] 2.91% | viability, T/C [3] 1.53% | viability, T/C [4] 1.52% | viability, T/C [6] 2.04% | viability, T/C [7] 1.96% | viability, T/C [8] 2.38% | viability, T/C [10] 2.07% | viability, T/C [11] 1.82% | viability, T/C [12] 1.89% | viability, T/C [14] 2.07% | viability, T/C [15] 1.99% | viability, T/C [16] 1.85% | viability, T/C [18] 2.27% | viability, T/C [19] 1.51% | viability, T/C [20] 1.37% | viability, T/C [22] 2.7% | viability, T/C [23] 1.81% | viability, T/C [24] 1.46%

From PubChem BioAssay AID2060883 (Molecular Pharmacology Branch, DTP, NCI, 2025)
